Data on two compounds can be found in patent publication US7842805B2, “Pharmaceutical compounds as activators of caspases and inducers of apoptosis and the use thereof” (Myrexis, Inc., priority 2005, dated 2010).

The test system of one assay is HT29. As to the kind of experiment: Inhibition of cell proliferation (GI50, CellTiter-Glo). It is filed as cell-based. The following applies: Homo sapiens, HT-29; HT29 cells, 48 h. As for the experimental part: (§1) T-47D, HT29, H1299, MX-1 and MDAMB435 cells were grown and harvested as in Example 29. An aliquot of […] of cells (4.4×10^4 cells/mL) was added to a well of a 96-well microtiter plate containing 5 μL of a 10% DMSO in RPMI-1640 media solution containing 10 nM to 100 μM of benzo[d][1,2,3]triazin-4-yl-(4-methoxy-phenyl)methyl-amine (1 nM to 10 μM final). An aliquot of 45 μL of cells was added to a well of a 96-well microtiter plate containing 5 μL of a 10% DMSO in RPMI-1640 media solution without compound as the control sample for maximal cell proliferation (LMax). The samples were mixed by agitation and then incubated at 37° C. for 48 h in a 5% CO2-95% humidity incubator. After incubation, the samples were removed from the incubator and 25 μL of CellTiter-Glo™ reagent (Promega) was added. The samples were mixed by agitation and incubated at room temperature for 10-15 min. Plates were then read using a luminescent plate reader (Model SPECTRAfluor Plus, Tecan) to give Ltest values.
(§2) Baseline for GI50 (dose for 50% inhibition of cell proliferation) of initial cell numbers was determined by adding an aliquot of 45 μL of cells or 45 μL of media, respectively, to wells of a 96-well microtiter plate containing 5 μL of a 10% DMSO in RPMI-1640 media solution. The samples were mixed by agitation and then incubated at 37° C. for 0.5 h in a 5% CO2-95% humidity incubator. After incubation, the samples were removed from the incubator and 25 μL of CellTiter-Glo™ reagent (Promega) was added. The samples were mixed by agitation and incubated at 37° C. for 10-15 min at room temperature in a 5% CO2-95% humidity incubator. Fluorescence was read as above, (Lstart) defining luminescence for initial cell number used as baseline in GI50 determinations.
(§3) GI50 (dose for 50% inhibition of cell proliferation) is the concentration where [(LTest−Lstart)/(LMax−Lstart)]=0.5.
On the technique in general: ATP-based viability assays read luminescence as a measure of living cells.

The subject of a further assay is MDAMB435. The description is as above. It is filed as cell-based. The following applies: Homo sapiens, MDA-MB-435; MDAMB435 cells, 48 h. As for the experimental part:
as §1, §2, §3

The subject of another assay is H1299. Described as above. It counts as cell-based. The conditions noted are these: Homo sapiens, NCI-H1299; H1299 cells, 48 h. As for the experimental part: as §1, §2, §3
A further assay relates to MX-1. Described as above. It is filed as cell-based. The conditions noted are these: Homo sapiens, MX1; MX-1 cells, 48 h. As for the experimental part:
as §1, §2, §3

Assay [1] deals with T-47D. The description is as above. It counts as cell-based. The conditions noted are these: Homo sapiens, T47D; T-47D cells, 48 h. On the procedure:
as §1, §2, §3

Assay [2] concerns T-47D. As to the kind of experiment: Caspase cascade activation assay (Ac-DEVD-R110 fluorogenic substrate). It counts as cell-based, Human. The following applies: T-47D (24 hr); for EC50: Homo sapiens, T47D, read-out: Caspase potency EC50; for Caspase activity (Ratio): ratio of net RFU of test compound to control. On the procedure:
Human breast cancer cell lines T-47D and DLD-1 were grown according to media component mixtures designated by American Type Culture Collection+10% FCS (Invitrogen Corporation), in a 5% CO2-95% humidity incubator at 37° C. T-47D and DLD-1 cells were maintained at a cell density between 50 and 80% confluency at a cell density of 0.1 to 0.6×10^6 cells/mL. Cells were harvested at 600×g and resuspended at 0.65×10^6 cells/mL into appropriate media+10% FCS. An aliquot of 22.5 μL of cells was added to a well of a 384-well microtiter plate containing 2.5 μL of a 10% DMSO in RPMI-1640 media solution containing 0.16 to 100 μM of benzo[d][1,2,3]triazin-4-yl-(4-methoxyphenyl)-methyl-amine or other test compound (0.016 to 10 μM final). An aliquot of 22.5 μL of cells was added to a well of a 384-well microtiter plate containing 2.5 μL of a 10% DMSO in RPMI-1640 media solution without test compound as the control sample. […] After incubation, the samples were removed from the incubator and 25 μL of a solution containing 14 μM of N—(Ac-DEVD)-N′-ethoxycarbonyl-R110 fluorogenic substrate (Cytovia, Inc.; WO99/18856), 20% sucrose (Sigma), 20 mM DTT (Sigma), 200 mM NaCl (Sigma), 40 mM Na PIPES buffer pH 7.2 (Sigma), and 500 μg/mL lysolecithin (Calbiochem) was added. The samples were mixed by agitation and incubated at room temperature. Using a fluorescent plate reader (Model SPECTRAfluor Plus, Tecan), an initial reading (T=0) was made approximately 1-2 min after addition of the substrate solution, employing excitation at 485 nm and emission at 530 nm, to determine the background fluorescence of the control sample. After the 3 h incubation, the samples were read for fluorescence as above (T=3 h).
The Relative Fluorescence Unit values (RFU) were used to calculate the sample readings as follows: RFU(T=3h)−Control RFU(T=0)=Net RFU(T=3h)
The activity of caspase cascade activation was determined by the ratio of the net RFU value for benzo[d][1,2,3]triazin-4-yl-(4-methoxy-phenyl)-methyl-amine or other test compounds to that of control samples. The EC50 (nM) was determined by a sigmoidal dose-response calculation (Prism 3.0, GraphPad Software Inc.).

With `COc1ccc(N(C)c2nnnc3ccccc23)cc1` [Example 1, Benzo[d][1,2,3]triazin-4-yl-(4-methoxy-phenyl)-methyl-amine], the concentration for 50% growth inhibition (GI50) in the assay on HT29 is 50 nM; in the assay with MDAMB435 it was 7 nM; with H1299 it was 40 nM; in the assay with MX-1, 50 nM; in the assay with T-47D [1] it was 50 nM. Moreover, the EC50 with T-47D [2] came to 16 nM. Besides, the “Caspase activity (Ratio)” value in the assay on T-47D [2] worked out at 9.3.

As to `COc1ccc(N(C)c2nncc3ccccc23)cc1` [Example 2, (4-Methoxy-phenyl)-methyl-phthalazin-1-yl-amine], the GI50 was 200 nM in the assay on HT29; 62 nM in the assay with MDAMB435; 106 nM in the assay with H1299; 52 nM in the assay with MX-1; 120 nM in the assay with T-47D [1]. Also, the half-maximal effective concentration (EC50) with T-47D [2] is 106 nM. In the assay on T-47D [2], the “Caspase activity (Ratio)” value stood at 11.1.

The term GI50 denotes the concentration giving 50% growth inhibition. A word on the EC50: it is the concentration needed to bring the measured effect to its halfway point.
